Reference: patent US7038111B2, “Method for increasing stress tolerance in plants” (The Arizona Board of Regents, priority 2001, dated 2006)

Columns and labels:
Assay type in all cases: in vivo, Arabidopsis thaliana
RD29A-LUC = RD29A-LUC luminescence expression in seedlings, ABA given together with salt or cold stress
Procedure: Arabidopsis thaliana (C24 ecotype) expressing the RD29A-LUC transgene (referred to as the wild type) were obtained by Agrobacterium-mediated transformation (Ishitani et al., 1997). Seeds of wild type RD29A-LUC were mutagenized by ethyl methanesulfonate (Ishitani et al., 1997). M2 were planted on 0.6% agar plates containing full strength Murashige and Skoog salt base (MS salt base; JRH Biosceicnes, Lenex, Kans.) and were germinated and grown at 22±2° C. under continuous white light. One-week-old seedlings were screened for mutants with altered RD29A-LUC (i.e. luminescence) expression in response to low temperature, ABA, or osmotic stress using a thermoelectrically cooled CCD camera. For luminescence imaging, plants were sprayed with 1 mM luciferin in 0.01% Triton X-100 and then kept in the dark for 5 min before imaging. All images were acquired with a 5 min exposure time. The luminescence intensity of each seedling was quantified with the WinView software.
For ABA treatment, 100 μM (±)-cis, trans-abscisic acid in H2O was sprayed uniformly on leaves of seedlings and the plants were incubated at room temperature under cool-white light for 4 hr (for luminescence imaging) or 3 hr (for RNA analysis). For NaCl or PEG treatment, seedlings on MS plates were transferred to filter paper saturated with MS solution supplemented with 300 mM NaCl or 30% of polyethylene glycol (molecular weight 6,000) and incubated for 5 hr. Unless otherwise stated, cold treatment for image analysis and RNA analysis were done by incubating seedlings growing in plates at 0° C. in the dark for 48 hr (for imaging) or 12 hr (for RNA analysis). Because longer treatment at −5 or −10° C. will result in freezing of the agar media, these freezing temperature treatments only lasted for 3 hr. After the treatment, the plates were placed at room temperature for 2 hr to thaw before luminescence images acquisition. For ABA plus NaCl treatment, seedlings were transferred onto a filter paper saturated with 300 mM NaCl in MS solution and sprayed immediately with 100 μM ABA. […]

LOS5/ABA3 gene = test: RNA blot analysis of LOS5/ABA3 transcript level; details: wild type seedlings, 100 μM ABA for 4 hr
Procedure: […] For NaCl or PEG treatment, seedlings on MS plates were transferred to filter paper saturated with MS solution supplemented with 300 mM NaCl or 30% of polyethylene glycol (molecular weight 6,000) and incubated for 5 hr. Unless otherwise stated, cold treatment for image analysis and RNA analysis were done by incubating seedlings growing in plates at 0° C. in the dark for 48 hr (for imaging) or 12 hr (for RNA analysis). Because longer treatment at −5 or −10° C. will result in freezing of the agar media, these freezing temperature treatments only lasted for 3 hr. After the treatment, the plates were placed at room temperature for 2 hr to thaw before luminescence images acquisition. For ABA plus NaCl treatment, seedlings were transferred onto a filter paper saturated with 300 mM NaCl in MS solution and sprayed immediately with 100 μM ABA. The plants were then incubated under cool-white light for 4 hr before luciferase imaging. For low temperature plus ABA treatment, seedlings on agar plates were briefly incubated at 0±1° C. for 10 min and then sprayed with 100 μM ABA and incubated in the dark at 0±1° C. for 48 hr before image analysis.
Ten-day-old seedlings on MS agar plates were treated were treated with cold, ABA, NaCl, or PEG as described in the above section. […] Total RNA from control or treated plants was extracted and analyzed as described (Ishitani et al., 1998). […]

[1] = tested on: Arabidopsis wild type and los5-1 plants; test: Transpirational water loss of detached aerial parts after ABA spray; details: sprayed with 100 μM ABA 3 hr before detaching aerial parts
Procedure: To determine whether los5 mutant plants are deficient in ABA or are insensitive to ABA, wild type and los5-1 plants at the rosette stage were sprayed with 100 μM ABA 3 hr before detaching the aerial parts for water loss measurement.
For water loss measurement, plants at the rosette stage were detached from soil surface and weighed immediately in a plastic weighing boat. The boat with the plants was then placed on laboratory bench (relative humidity ˜30%) and weighed at designated time intervals. There were four replicates for each line. Percent loss of fresh weight was calculated based on the initial weight of the plants.

**Q.** Which RD29A-LUC expression (RD29A-LUC; los5 and los6/aba1 seedlings, 100 μM ABA administered simultaneously with 300 mM NaCl, 4 hr) does the source give for `CC1=CC(=O)CC(C)(C)C1(O)/C=C/C(C)=C\C(=O)O` (racemic) [ABA, (±)-cis, trans-abscisic acid] here?
**A.** Its RD29A-LUC expression is “restored to the wild type level or higher”.

**Q.** And the RD29A-LUC expression (RD29A-LUC; los5 mutant seedlings, 100 μM ABA together with cold, 0° C. for 48 hr)?
**A.** The RD29A-LUC expression was “failed to restore”.

**Q.** And the RD29A-LUC luminescence expression (RD29A-LUC; los6/aba1 seedlings, 100 μM ABA together with cold, 0° C. for 48 hr)?
**A.** Its RD29A-LUC luminescence expression is “close to the wild type level”.

**Q.** And the “transcript level of LOS5” value (LOS5/ABA3 gene)?
**A.** Its value is “increases significantly”.

**Q.** What about the “rate of water loss” value ([1]; los5-1 plants at rosette stage) of the same molecule?
**A.** Its value is “reduced substantially”.

**Q.** What about the transpirational water loss ([1]; wild type plants at rosette stage) of the same molecule?
**A.** Its transpirational water loss is “did not significantly affect”.
